In PubChem BioAssay AID1259407 (Chemical Carcinogenesis Research Information System (CCRIS), 2018):
Calls of active or inactive are those of the source. No rule for the calls is given here.

System: CCRIS mutagenicity, Ames/micronucleus/aberration tests
Assay: CCRIS mutagenicity studies
[1] = Test System: AMES SALMONELLA TYPHIMURIUM, Strain/Indicator: TA98, Metabolic Activation: HAMSTER, LIVER, S-9, AROCLOR 1254, Method: STANDARD PLATE
[2] = Test System: AMES SALMONELLA TYPHIMURIUM, Strain/Indicator: TA98, Metabolic Activation: NONE, Method: STANDARD PLATE
[3] = Test System: AMES SALMONELLA TYPHIMURIUM, Strain/Indicator: TA98, Metabolic Activation: RAT, LIVER, S-9, AROCLOR 1254, Method: STANDARD PLATE
[4] = Test System: AMES SALMONELLA TYPHIMURIUM, Strain/Indicator: TA100, Metabolic Activation: HAMSTER, LIVER, S-9, AROCLOR 1254, Method: STANDARD PLATE
[5] = Test System: AMES SALMONELLA TYPHIMURIUM, Strain/Indicator: TA100, Metabolic Activation: NONE, Method: STANDARD PLATE
[6] = Test System: AMES SALMONELLA TYPHIMURIUM, Strain/Indicator: TA100, Metabolic Activation: RAT, LIVER, S-9, AROCLOR 1254, Method: STANDARD PLATE
[7] = Test System: AMES SALMONELLA TYPHIMURIUM, Strain/Indicator: TA1535, Metabolic Activation: HAMSTER, LIVER, S-9, AROCLOR 1254, Method: STANDARD PLATE
[8] = Test System: AMES SALMONELLA TYPHIMURIUM, Strain/Indicator: TA1535, Metabolic Activation: NONE, Method: STANDARD PLATE
[9] = Test System: AMES SALMONELLA TYPHIMURIUM, Strain/Indicator: TA1535, Metabolic Activation: RAT, LIVER, S-9, AROCLOR 1254, Method: STANDARD PLATE
[10] = Test System: AMES SALMONELLA TYPHIMURIUM, Strain/Indicator: TA1537, Metabolic Activation: HAMSTER, LIVER, S-9, AROCLOR 1254, Method: STANDARD PLATE
[11] = Test System: AMES SALMONELLA TYPHIMURIUM, Strain/Indicator: TA1537, Metabolic Activation: NONE, Method: STANDARD PLATE
[12] = Test System: AMES SALMONELLA TYPHIMURIUM, Strain/Indicator: TA1537, Metabolic Activation: RAT, LIVER, S-9, AROCLOR 1254, Method: STANDARD PLATE
[13] = Test System: AMES SALMONELLA TYPHIMURIUM, Strain/Indicator: TA1538, Metabolic Activation: HAMSTER, LIVER, S-9, AROCLOR 1254, Method: STANDARD PLATE
[14] = Test System: AMES SALMONELLA TYPHIMURIUM, Strain/Indicator: TA1538, Metabolic Activation: NONE, Method: STANDARD PLATE
[15] = Test System: AMES SALMONELLA TYPHIMURIUM, Strain/Indicator: TA1538, Metabolic Activation: RAT, LIVER, S-9, AROCLOR 1254, Method: STANDARD PLATE
[16] = Test System: MOUSE LYMPHOMA, Strain/Indicator: L5178Y (TK+/TK-), Metabolic Activation: NONE, Method: SUSPENSION/PLATE
[17] = Test System: MOUSE LYMPHOMA, Strain/Indicator: L5178Y (TK+/TK-), Metabolic Activation: RAT, LIVER, S-9, AROCLOR 1254, Method: SUSPENSION/PLATE

Structure (SMILES) | mutagenic call [2] | mutagenic call [3] | mutagenic call [5] | mutagenic call [6] | mutagenic call [8] | mutagenic call [9] | mutagenic call [11] | mutagenic call [12] | mutagenic call [14] | mutagenic call [15] | further results
Oc1ccc([C@H]2COc3cc(O)ccc3C2)cc1 | – | – | – | – | – | – | – | – | – | – | mutagenic call (End Point: IN VITRO MICRONUCLEUS, Test System: CHINESE HAMSTER V79 CELLS, Metabolic Activation: NONE): active; positive
Clc1nnc(Cl)c2ccccc12 | inactive; negative | inactive; negative | inactive; negative | inactive; negative | inactive; negative | inactive; negative | inactive; negative | inactive; negative | inactive; negative | inactive; negative | mutagenic call [1]: inactive; negative; mutagenic call [4]: inactive; negative; mutagenic call [7]: inactive; negative; mutagenic call [10]: inactive; negative; mutagenic call [13]: inactive; negative; mutagenic call [16]: active; positive. reevaluation of results: inconclusive; mutagenic call [17]: active; positive. reevaluation of results: positive
CO/N=C(\C(=O)N[C@@H]1C(=O)N2C(C(=O)O)=C(CSC(=O)c3ccco3)CS[C@H]12)c1csc(N)n1 | inactive; negative | inactive; negative | inactive; negative | inactive; negative | inactive; negative | inactive; negative | inactive; negative | inactive; negative | inactive; negative | inactive; negative | mutagenic call (Test System: CHINESE HAMSTER V-79, Strain/Indicator: V-79 (HPRT)/6-THIOGUANINE, Metabolic Activation: NONE): inactive; negative; mutagenic call (Test System: CHINESE HAMSTER V-79, Strain/Indicator: V-79 (HPRT)/6-THIOGUANINE, Metabolic Activation: RAT, LIVER, S-9, AROCLOR 1254): inactive; negative; mutagenic call (Test System: UDS RAT HEPATOCYTES, Strain/Indicator: THY INCORP, Metabolic Activation: NONE, Method: IN VIVO-IN VITRO): inactive; negative
Fc1ccc(F)c2c1ccc1cccnc12 | – | – | – | – | – | – | – | – | – | – | mutagenic call (Test System: AMES SALMONELLA TYPHIMURIUM, Strain/Indicator: TA100, Metabolic Activation: RAT, LIVER, S-9, PHENOBARBITAL AND 5,6-BENZOFLAVONE, Method: PREINCUBATION): active; positive
Nc1ncc(/C=C/c2ccc([N+](=O)[O-])o2)nn1 | – | – | – | – | – | – | – | – | – | – | mutagenic call (Test System: E. COLI, Strain/Indicator: WP2, Metabolic Activation: NONE, Method: SPOT): active; positive; mutagenic call (Test System: E. COLI, Strain/Indicator: WP2 UVRA, Metabolic Activation: NONE, Method: SPOT): active; positive; mutagenic call (Test System: E. COLI, Strain/Indicator: WP2 UVRA, Metabolic Activation: NONE, Method: STANDARD PLATE): active; positive
CC1=C[C@H](O)[C@H]2C[C@@H]1C2(C)C | inactive; negative | – | inactive; negative | – | inactive; negative | – | – | – | inactive; negative | – | mutagenic call (Test System: AMES SALMONELLA TYPHIMURIUM, Strain/Indicator: TA98, Metabolic Activation: RAT, LIVER, S-9, Method: STANDARD PLATE): inactive; negative; mutagenic call (Test System: AMES SALMONELLA TYPHIMURIUM, Strain/Indicator: TA100, Metabolic Activation: RAT, LIVER, S-9, Method: STANDARD PLATE): inactive; negative; mutagenic call (Test System: AMES SALMONELLA TYPHIMURIUM, Strain/Indicator: TA1535, Metabolic Activation: RAT, LIVER, S-9, Method: STANDARD PLATE): inactive; negative; mutagenic call (Test System: AMES SALMONELLA TYPHIMURIUM, Strain/Indicator: TA1538, Metabolic Activation: RAT, LIVER, S-9, Method: STANDARD PLATE): inactive; negative
c1ccc(-c2ccc(-c3ccccc3)cc2)cc1 | inactive; negative | inactive; negative | inactive; negative | inactive; negative | inactive; negative | inactive; negative | inactive; negative | inactive; negative | inactive; negative | inactive; negative | mutagenic call [1]: inactive; negative; mutagenic call [4]: inactive; negative; mutagenic call [7]: inactive; negative; mutagenic call [10]: inactive; negative; mutagenic call [13]: inactive; negative; mutagenic call [16]: inactive; negative. reevaluation of results: negative; mutagenic call [17]: active; positive. reevaluation of results: equivocal
C=C(CC(=O)OCC)C(=O)OCC | – | – | – | – | – | – | – | – | – | – | mutagenic call (Test System: Chinese hamster ovary cells, Metabolic Activation: None, Method: CHO/HGPRT assay): inactive; negative
O=[N+]([O-])c1ccc(/C=C/c2cccc([N+](=O)[O-])c2)cc1 | active; positive | – | active; positive | – | – | – | – | – | – | – | mutagenic call (Test System: AMES SALMONELLA TYPHIMURIUM, Strain/Indicator: TA98 (NR), Metabolic Activation: NONE, Method: STANDARD PLATE): active; positive; mutagenic call (Test System: AMES SALMONELLA TYPHIMURIUM, Strain/Indicator: TA98 (NR), Metabolic Activation: S-9, Method: STANDARD PLATE): inactive; negative; mutagenic call (Test System: AMES SALMONELLA TYPHIMURIUM, Strain/Indicator: TA98, Metabolic Activation: S-9, Method: STANDARD PLATE): active; positive; mutagenic call (Test System: AMES SALMONELLA TYPHIMURIUM, Strain/Indicator: TA100 (NR), Metabolic Activation: NONE, Method: STANDARD PLATE): inactive; negative; mutagenic call (Test System: AMES SALMONELLA TYPHIMURIUM, Strain/Indicator: TA100 (NR), Metabolic Activation: S-9, Method: STANDARD PLATE): inactive; negative; mutagenic call (Test System: AMES SALMONELLA TYPHIMURIUM, Strain/Indicator: TA100, Metabolic Activation: S-9, Method: STANDARD PLATE): active; positive
